Patent US12540913B2, “Chemical sensor, reagent, and method for detecting benzoic acid and benzoic acid derivative” (KABUSHIKI KAISHA TOSHIBA, priority 2023, dated 2026)
Like-named read-outs stand apart in the source and are kept apart here.

Target: cocaine aptamer
Settings: for Kd: read-out: dissociation constant Kd

| SMILES | Kd (Comparative Example 1: 1 mM methyl benzoate titrated into 50 μM cocaine aptamer in D-PBS(−), no tropane derivative, binding order 1) [µM] | Kd (Example 1: 1 mM methyl benzoate titrated into 50 μM cocaine aptamer in D-PBS(−) containing 10 μM tropine) [µM] | ITC heat generation (Comparative Example 2: 1 mM tropine titrated into 50 μM cocaine aptamer in D-PBS(−)) | ITC heat generation (Comparative Example 3: 1 mM tropine titrated into 50 μM cocaine aptamer in D-PBS(−) containing 10 μM methyl benzoate) |
| --- | --- | --- | --- | --- |
| COC(=O)c1ccccc1 [methyl benzoate] | 87.7 | 69.7 | – | – |
| CN1[C@@H]2CC[C@H]1C[C@@H](O)C2 [tropine] | – | – | no heat generation was observed | no heat generation was observed |
